Results from patent publication US9669003B2, “Use of flavone and flavanone derivatives in preparation of sedative and hypnotic drugs” (priority 2012, dated 2017).
Marks after values point to notes of the source that are not given here.

Columns and labels:
Type in all cases: in vivo
Kunming mice [1] = assay: Influence on hypnosis effect with pentobarbital sodium doses at the threshold (50 mg/kg i.p.); conditions: pentobarbital sodium 50 mg/kg i.p. 60 min later, x ± s, n = 10
Source text: (§1) 1.1 Animals for experiments: Kunming mice, weighting 18.9˜22.2 g for females, and 20.2˜23.0 g for males, licensed under SCXK-(Ji) 2007-0003, and provided by The experimental animal centre, Jilin University.
(§2) 1.2 Chemicals for experiments: The flavone derivatives provided in Examples 1-41 and the flavanone derivatives provided in Examples 42-71 are all formulated with 0.5% sodium carboxymethyl cellulose as solutions with required concentrations.
(§3) 1.3 Grouping of animals: 6420 animals are employed in the entire experiments and 2140 of the animals are randomly divided into 214 groups by gender, and the […] include: control group, low dosage group for each experimental drugs (25 mg/kg), medium dosage group for each experimental drugs (50 mg/kg), and high dosage group for each experimental drugs (100 mg/kg). Each group has 10 animals and either female or male constitutes half of the group. The groups are used in behavior observation and voluntary action observation. The other 4280 animals are randomly divided into 214 groups by gender respectively (the grouping way is the same with that described above). Each group has 20 animals and either female or male constitutes half of the group. In each group, 10 animals are used in hypnosis experimentations with pentobarbital sodium doses below the threshold, and the other 10 animals are used hypnosis experimentations with pentobarbital sodium doses at the threshold.
1.5.4 Influence on Hypnosis Effect with Mice Pentobarbital Sodium Doses at the Threshold
(§4) The drug is intragastric administered in mice for single time, 2 animals of each group are given drug per round with the dosing interval of 40 min (±5 min). According to the administration round, in 60 min (±5 min) of each round after the drug administration, the animals were intraperitoneally injected 0.3% sodium pentobarbital 50 mg/kg, respectively. Time to fall asleep (sleep latency) and sleep duration of the animals were recorded within under sleep determination standard of loss of righting reflex more than 1 min.
(§5) Number of autonomic activities is detected by leneve Test for homogeneity of variance. If the homogeneity of variance is good (P>0.05), statistical analysis is performed with ANOVA. If ANOVA have statistical significance (P≦0.05), Dunnett's test for multiple comparisons analysis is performed. Number of animals of sleeping mice is applied of ANOVA. Incidence rate of animal asleep is applied of χ2 test. Sleep latency and sleep duration are recorded in min, averaged by group, represented by standard deviation, and undergo statistical analysis using ANOVA.

Kunming mice [2] = assay: Influence on autonomic activity of normal mice (ZIL-2 mice autonomic activity meter, counts within 10 min); conditions: intragastric, x ± s, n = 10; for Times of activities in 1 h after drug administration/10 min: 1 h after administration; for Times of activities in 2 h after drug administration/10 min: 2 h after administration; for Times of activities in 24 h after drug administration/10 min: 24 h after administration
Source text: as §1, §2, §3
1.4 Experimental instrument and agents: ZIL-2 mice autonomic activity meter, production of Institute of Materia Medica of Chinese Academy of Medical Sciences; pentobarbital sodium, Lot: 100808, 25 g/bottle, Beijing Chemical Reagent Company equipment imported from Germany.
1.5.2 Influence on Autonomic Activity of Normal Mice
After observing the general behavior, in 1 h, 2 h and 24 h after drug administration, respectively, ZIL-2 mice autonomic activity meter is put respectively. Number of autonomic activities of each group of mice is measured within 10 min. Results among groups are compared.
as §5

Kunming mice [3] = assay: Influence on hypnosis effect with pentobarbital sodium doses below the threshold (25 mg/kg i.p.); conditions: pentobarbital sodium 25 mg/kg i.p. 60 min later, sleep observed in 30 min, n = 10
Source text: as §1, §2, §3
1.5.3 Influence on Hypnosis Effect with Mice Pentobarbital Sodium Doses Below the Threshold
as §4, with “25” for “50”, “Sleep condition” for “Time to fall asleep (sleep latency) and sleep duration”, “observed” for “recorded”, “30 min (under” for “under”, “min). After animals undergo loss of righting reflex, number of the animals is recorded, to calculate sleep percentage.” for “min.”
as §5

[4] = 25 mg/kg intragastric single dose
[5] = 50 mg/kg intragastric single dose
[6] = 100 mg/kg intragastric single dose
[7] = test drug 25 mg/kg intragastric single dose
[8] = test drug 50 mg/kg intragastric single dose
[9] = test drug 100 mg/kg intragastric single dose

| SMILES | duration of sleep (Kunming mice [1]; [4]) [min] | time to sleep (Kunming mice [1]; [4]) [min] | duration of sleep (Kunming mice [1]; [5]) [min] | time to sleep (Kunming mice [1]; [5]) [min] | duration of sleep (Kunming mice [1]; [6]) [min] | time to sleep (Kunming mice [1]; [6]) [min] | Times of activities in 1 h after drug administration/10 min (Kunming mice [2]; 25 mg/kg) | Times of activities in 2 h after drug administration/10 min (Kunming mice [2]; 25 mg/kg) | Times of activities in 24 h after drug administration/10 min (Kunming mice [2]; 25 mg/kg) | Times of activities in 1 h after drug administration/10 min (Kunming mice [2]; 50 mg/kg) | Times of activities in 2 h after drug administration/10 min (Kunming mice [2]; 50 mg/kg) | Times of activities in 24 h after drug administration/10 min (Kunming mice [2]; 50 mg/kg) | Times of activities in 1 h after drug administration/10 min (Kunming mice [2]; 100 mg/kg) | Times of activities in 2 h after drug administration/10 min (Kunming mice [2]; 100 mg/kg) | Times of activities in 24 h after drug administration/10 min (Kunming mice [2]; 100 mg/kg) | Number of sleeping animals (Kunming mice [3]; [7]) | rate of sleeping (%) (Kunming mice [3]; [7]) | Number of sleeping animals (Kunming mice [3]; [8]) | rate of sleeping (%) (Kunming mice [3]; [8]) | Number of sleeping animals (Kunming mice [3]; [9]) | further results |
| --- | --- | --- | --- | --- | --- | --- | --- | --- | --- | --- | --- | --- | --- | --- | --- | --- | --- | --- | --- | --- | --- |
| COc1ccc(C2CC(=O)c3cc(OC)c(OC)c(OC)c3O2)cc1OC (stereo not drawn) [Example 45, 6,7,8,3′,4′-penta methoxyl-flavanone] | 59.67 ± 19.87 | 4.19 ± 1.78 | 66.42 ± 28.90 | 3.26 ± 1.24 | 90.03 ± 23.72 | 2.17 ± 1.14 | 235.6 ± 44.5 /10 min | 223.2 ± 41.4 /10 min | 299.2 ± 61.3 /10 min | 136.6 ± 40.5 /10 min | 123.3 ± 47.6 /10 min | 291.5 ± 60.4 /10 min | 112.5 ± 35.4 /10 min | 105.6 ± 48.5 /10 min | 288.8 ± 69.5 /10 min | 5 | 50** % | 6 | 60** % | 10 | rate of sleeping (%) (Kunming mice [3]; [9]): 100*** % |
| COc1ccc(-c2cc(=O)c3c(O)cc(OC)c(OC)c3o2)c(OC)c1OC [Example 9, 5-hydroxyl-7,8,2′,3′,4′-penta methoxyl-flavone] | 49.14 ± 16.71 | 3.31 ± 1.81 | 72.31 ± 21.42 | 2.91 ± 1.52 | 85.16 ± 21.97 | 2.12 ± 1.12 | 258.4 ± 60.2 /10 min | 241.1 ± 34.1 /10 min | 314.2 ± 67.9 /10 min | 183.5 ± 45.9 /10 min | 194.3 ± 45.1 /10 min | 317.2 ± 80.9 /10 min | 129.0 ± 40.2 /10 min | 126.3 ± 39.8 /10 min | 323.5 ± 62.4 /10 min | 6 | 60** % | 7 | 70** % | 8 | rate of sleeping (%) (Kunming mice [3]; [9]): 80*** % |
| CCCCCc1cc(-c2cc(=O)c3c(CC)cc(CCCCCCl)cc3o2)cc(O)c1Cc1ccccc1 [Example 19] | 30.63 ± 20.25 | 4.95 ± 2.00 | 37.67 ± 13.45 | 4.57 ± 1.65 | 52.65 ± 20.15 | 3.94 ± 1.23 | 282.2 ± 46.5 /10 min | 265.0 ± 45.3 /10 min | 302.8 ± 83.2 /10 min | 234.7 ± 40.1 /10 min | 243.5 ± 48.3 /10 min | 306.2 ± 81.3 /10 min | 229.6 ± 34.8 /10 min | 172.5 ± 39.2 /10 min | 287.8 ± 89.1 /10 min | 3 | 30% | 6 | 60** % | 7 | rate of sleeping (%) (Kunming mice [3]; [9]): 70** % |
| CCCc1cc(C2CC(=O)c3c(cc(O)cc3[N+](=O)[O-])O2)cc(-c2ccccc2)c1C1CCSC1 (stereo not drawn) [Example 51] | 49.88 ± 19.09 | 4.61 ± 1.74 | 57.61 ± 14.98 | 3.43 ± 1.99 | 82.27 ± 15.68 | 2.71 ± 1.72 | 227.8 ± 75.6 /10 min | 231.8 ± 79.8 /10 min | 321.6 ± 70.7 /10 min | 143.3 ± 64.7 /10 min | 130.7 ± 63.2 /10 min | 306.3 ± 68.2 /10 min | 115.8 ± 34.4 /10 min | 108.8 ± 39.4 /10 min | 300.4 ± 77.5 /10 min | 6 | 60** % | 6 | 60** % | 8 | rate of sleeping (%) (Kunming mice [3]; [9]): 80*** % |
| CC=Cc1cc(Cc2ccccc2)c2c(=O)cc(-c3cc(C#N)c([N+](=O)[O-])c(Cc4ccccc4)c3)oc2c1 [Example 25] | 41.02 ± 18.97 | 4.41 ± 1.67 | 62.87 ± 28.45 | 3.84 ± 1.31 | 70.23 ± 23.65 | 3.05 ± 1.20 | 286.3 ± 48.9 /10 min | 279.9 ± 41.7 /10 min | 295.2 ± 82.3 /10 min | 185.3 ± 51.1 /10 min | 190.2 ± 56.9 /10 min | 296.3 ± 91.1 /10 min | 135.6 ± 39.4 /10 min | 136.8 ± 47.9 /10 min | 281.6 ± 93.7 /10 min | 4 | 40* % | 7 | 70** % | 7 | rate of sleeping (%) (Kunming mice [3]; [9]): 70** % |
